{"source": "patent US12195427B2", "about": "“MASP-2 inhibitors and methods of use” (priority 2018, dated 2025)", "key": {"MASP-2 (CCP1-CCP2-SP)": {"biological_target": "MASP-2 (CCP1-CCP2-SP) (Homo sapiens (Human), UniProt O00187)", "sequence (O00187 445-686)": "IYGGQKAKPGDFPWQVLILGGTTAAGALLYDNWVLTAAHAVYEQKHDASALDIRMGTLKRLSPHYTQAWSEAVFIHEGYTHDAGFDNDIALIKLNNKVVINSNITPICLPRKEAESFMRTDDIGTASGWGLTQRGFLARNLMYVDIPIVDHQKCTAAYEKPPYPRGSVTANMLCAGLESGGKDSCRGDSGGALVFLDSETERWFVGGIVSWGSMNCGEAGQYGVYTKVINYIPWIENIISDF", "assay": "Enzymatic Assay for MASP-2 (fluorogenic substrate)", "type": "biochemical"}, "MASP-2 CCP2-SP": {"biological_target": "MASP-2 CCP2-SP (Homo sapiens (Human), UniProt O00187)", "sequence (O00187 445-686)": "as above", "sequence (O00187 364-432 partner)": "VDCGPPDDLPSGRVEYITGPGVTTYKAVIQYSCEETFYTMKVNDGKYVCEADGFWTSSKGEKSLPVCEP", "assay": "MASP-2 co-crystallization, X-ray crystallography and structure analysis (H-bonds, van der Waals contacts);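 on Ligand-pharmacophore element distance, pharmacophore element C2: distance from averaged pharmacophore element to bound ligand; missing value means element absent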;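 on Ligand-pharmacophore element distance, pharmacophore element C3: distance from averaged pharmacophore element to bound ligand; missing value means element absent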;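 on Ligand-pharmacophore element distance, pharmacophore element C4: distance from averaged pharmacophore element to bound ligand; missing value means element absent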;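 on Ligand-pharmacophore element distance, pharmacophore element C5: distance from averaged pharmacophore element to bound ligand; missing value means element absent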", "set-up": "van der Waals contact distance, MASP-2 HIS 483 atom CD2 / van der Waals contact distance, MASP-2 HIS 483 atom NE2 / van der Waals contact distance, SER 654 C to compound atom / van der Waals contact distance, SER 654 O to compound atom / van der Waals contact distance, TRP 655 C to compound atom / van der Waals contact distance, MASP-2 GLY 528 atom CA / van der Waals contact distance TRP 655 atom CZ3 / van der Waals contact distance TRP 655 atom N / van der Waals contact distance TRP 655 atom CE3 / van der Waals contact distance GLY 656 atom C / van der Waals contact distance GLY 656 atom CA / van der Waals contact distance GLY 656 atom O / van der Waals contact distance, MASP-2 TYR 607 atom CD1 / van der Waals contact distance, MASP-2 PRO 606 atom O / d(C3,CA1) / d(CA1,N1)2 / d(H4,O1) / d(H4,O2) / d(O1,O2) / d(CA1,O2) / d(CA6,O1) / d(CA6,O2) / d(CA1,C5) / d(O2,H3) / d(N2,C2) / d(CA5,N2) / d(N2,C4) / d(N2,C6) / d(N2,CA3) / d(N2,O3) / d(O4,H2): unit not given beside the values", "method_in_brief": "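Inhibitor complexes were obtained by soaking crystals of E. coli-expressed human MASP-2 CCP2-SP constructs, then flash-cooling in liquid nitrogen. Structures solved by molecular replacement (1Q3X search model) from synchrotron diffraction; where several poses existed, only one was analyzed, and nonbonded contacts listed can include H-bonds.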"}, "Lectin Pathway": {"system": "Lectin Pathway", "assay": "Lectin Pathway Activation Assay in Human Serum (mannan-coated ELISA, C3c detection)", "type": "biochemical", "conditions": "1% human serum", "procedure": "Microtiter ELISA plate was coated with mannan from Saccharomyces cerevisiae (Sigma-Aldrich, M7504) for overnight at 4° C. in coating buffer [15 mM Na2CO3, 35 mM NaHCO3]."}, "[1]": {"conditions": "Table A5-1 pharmacophore: distance between elements, S2/S1 region"}, "[2]": {"conditions": "Table A5-2 pharmacophore distance, S3/S4 region"}, "[3]": {"conditions": "Table A7-1, between pharmacophore elements of the bound compound"}, "[4]": {"conditions": "Table A8-6, nearest protein atom in cell to the left"}}, "data": [{"smiles": "C[C@H](NC(=O)[C@H]1C[C@H](c2ccccc2)CN1)C(=O)NCc1ccc2c(N)nccc2c1", "note": "[compound 1090]", "values": [{"measurement": "Ki", "setting": "MASP-2 (CCP1-CCP2-SP)", "result": "< 500", "unit": "nM"}, {"measurement": "H-bond distance to MASP-2 ASP 627 atom OD2", "setting": "MASP-2 CCP2-SP; Table A1 (H-Bonds), ASP 627 OD2", "result": 2.8}, {"measurement": "H-bond distance to MASP-2 GLY 656 atom N", "setting": "MASP-2 CCP2-SP; Table A1 (H-Bonds), GLY 656 N", "result": 3.3}, {"measurement": "H-bond distance to MASP-2 GLY 656 atom O", "setting": "MASP-2 CCP2-SP; Table A1 (H-Bonds), GLY 656 O", "result": 2.78}, {"measurement": "H-bond distance to MASP-2 SER 654 atom O", "setting": "MASP-2 CCP2-SP; Table A1 (H-Bonds), SER 654 O", "result": 2.96}, {"measurement": "H-bond distance to MASP-2 SER 657 atom OG", "setting": "MASP-2 CCP2-SP; Table A1 (H-Bonds), SER 657 OG", "result": 2.73}, {"measurement": "van der Waals contact distance, MASP-2 HIS 483 atom CD2", "setting": "MASP-2 CCP2-SP; Table A2-1", "result": 3.74}, {"measurement": "van der Waals contact distance, MASP-2 PHE 529 atom CE1", "setting": "MASP-2 CCP2-SP; Table A2-3", "result": 3.87}, {"measurement": "van der Waals contact distance, MASP-2 amino acid atom to compound atom", "setting": "MASP-2 CCP2-SP; Table A2-7 continued: CYS 629 (CA)", "result": 3.89}, {"measurement": "van der Waals contact distance, MASP-2 amino acid atom to compound atom", "setting": "MASP-2 CCP2-SP; Table A2-8, CYS 629 / ARG 630, AA atoms CB, N, C, O, CA, CB, CD", "result": 3.9}, {"measurement": "van der Waals contact distance, MASP-2 amino acid atom to compound atom", "setting": "MASP-2 CCP2-SP; Table A2-9, ARG 630, AA atoms CG, CZ", "result": 3.64}, {"measurement": "van der Waals contact distance, MASP-2 amino acid atom to compound atom", "setting": "MASP-2 CCP2-SP; Table A2-9 second part, ARG 630, AA atoms N, NE, NH1", "result": 3.85}, {"measurement": "van der Waals contact distance SER 657 atom C", "setting": "MASP-2 CCP2-SP; Table A2-14, MASP-2 SER 657 C, columns c12-c13 (inferred)", "result": 3.7}, {"measurement": "Ligand-pharmacophore element distance, pharmacophore element C2", "setting": "MASP-2 CCP2-SP; Table A4-1, element C2", "result": 0}, {"measurement": "Ligand-pharmacophore element distance, pharmacophore element C3", "setting": "MASP-2 CCP2-SP; Table A4-1, element C3", "result": 0}, {"measurement": "Ligand-pharmacophore element distance, pharmacophore element C4", "setting": "MASP-2 CCP2-SP; Table A4-1, element C4", "result": 0}, {"measurement": "Ligand-pharmacophore element distance, pharmacophore element C5", "setting": "MASP-2 CCP2-SP; Table A4-1, element C5", "result": 0}, {"measurement": "Ligand-pharmacophore element distance, pharmacophore element C6", "setting": "MASP-2 CCP2-SP; Table A4-1, element C6", "result": 0}, {"measurement": "Ligand-pharmacophore element distance, pharmacophore element C7", "setting": "MASP-2 CCP2-SP; Table A4-1, element C7", "result": 0}, {"measurement": "Ligand-pharmacophore element distance, pharmacophore element CA1", "setting": "MASP-2 CCP2-SP; Table A4-1, element CA1", "result": 0.98}, {"measurement": "Ligand-pharmacophore element distance, pharmacophore element CA2", "setting": "MASP-2 CCP2-SP; Table A4-1, element CA2", "result": 0}, {"measurement": "Ligand-pharmacophore element distance, pharmacophore element CA3", "setting": "MASP-2 CCP2-SP; Table A4-1, element CA3", "result": 0}, {"measurement": "Ligand-pharmacophore element distance, pharmacophore element CA4", "setting": "MASP-2 CCP2-SP; Table A4-1, element CA4", "result": 0}, {"measurement": "Ligand-pharmacophore element distance, pharmacophore element CA5", "setting": "MASP-2 CCP2-SP; Table A4-1, element CA5", "result": 0.91}, {"measurement": "Ligand-pharmacophore element distance, pharmacophore element CA6", "setting": "MASP-2 CCP2-SP; Table A4-1, element CA6", "result": 0}, {"measurement": "d(CA1,O1)", "setting": "MASP-2 CCP2-SP; [1]", "result": 5.59}, {"measurement": "d(CA1,O2)", "setting": "MASP-2 CCP2-SP; [1]", "result": 5.11}, {"measurement": "d(H4,O1)", "setting": "MASP-2 CCP2-SP; [1]", "result": 3.15}, {"measurement": "d(H4,O2)", "setting": "MASP-2 CCP2-SP; [1]", "result": 3.68}, {"measurement": "d(O1,O2)", "setting": "MASP-2 CCP2-SP; [1]", "result": 3.38}, {"measurement": "d(CA5,N2)", "setting": "MASP-2 CCP2-SP; [2]", "result": 5.09}, {"measurement": "d(N2,C4)4", "setting": "MASP-2 CCP2-SP; [2]", "result": 7.94}, {"measurement": "d(O2,H3)", "setting": "MASP-2 CCP2-SP; [2]", "result": 5.87}, {"measurement": "d(O2,N2)", "setting": "MASP-2 CCP2-SP; [2]", "result": 2.72}, {"measurement": "a(CA1, O1, O2)", "setting": "MASP-2 CCP2-SP; Table A6-1 pharmacophore angle", "result": 100.34}, {"measurement": "a(O1, O2, H4)", "setting": "MASP-2 CCP2-SP; Table A6-1 pharmacophore angle", "result": 121.29}, {"measurement": "a(O1, O2, H3)", "setting": "MASP-2 CCP2-SP; Table A6-2 pharmacophore angle", "result": 152.05}, {"measurement": "a(O1, O2, N2)", "setting": "MASP-2 CCP2-SP; Table A6-2 pharmacophore angle", "result": 140.84}, {"measurement": "Pharmacophore torsion angle a(H4, O1, O2, H3)", "setting": "MASP-2 CCP2-SP; [3]", "result": 91.31}, {"measurement": "Pharmacophore torsion angle a(H4, O1, O2, N2)", "setting": "MASP-2 CCP2-SP; [3]", "result": "−177.46"}, {"measurement": "Pharmacophore torsion angle a(O1, H4, O2, CA1)", "setting": "MASP-2 CCP2-SP; [3]", "result": "−92.71"}, {"measurement": "Pharmacophore torsion angle a(O1, O2, N2, CA5)", "setting": "MASP-2 CCP2-SP; Table A7-2, between pharmacophore elements of the bound compound", "result": 134.91}, {"measurement": "Pharmacophore protein distance to MET_658 (first MET_658 column)", "setting": "MASP-2 CCP2-SP; Table A8-6, 6th residue column, nearest protein atom in cell to the left", "result": 2.69}, {"measurement": "Pharmacophore protein distance to MET_658 (second MET_658 column)", "setting": "MASP-2 CCP2-SP; Table A8-6, 9th residue column, nearest protein atom in cell to the left", "result": 2.71}, {"measurement": "Pharmacophore protein distance to GLY_528", "setting": "MASP-2 CCP2-SP; [4]", "result": 3.61}, {"measurement": "Pharmacophore protein distance to PHE_529", "setting": "MASP-2 CCP2-SP; [4]", "result": 2.77}, {"measurement": "Pharmacophore protein distance to PRO_608", "setting": "MASP-2 CCP2-SP; [4]", "result": 3.95}, {"measurement": "Pharmacophore protein distance to SER_611", "setting": "MASP-2 CCP2-SP; [4]", "result": 2.87}, {"measurement": "Pharmacophore protein distance to TRP_655", "setting": "MASP-2 CCP2-SP; Table A8-6, pharmacophore elements C6, CA3, O3, H1, nearest protein atom in cell to the left", "result": 3.50}, {"measurement": "IC50", "setting": "Lectin Pathway", "result": "500 to 5000", "unit": "nM"}]}]}
